Experimental data taken from publication PMC9606187, “Dual HDAC/BRD4 Inhibitors Relieves Neuropathic Pain by Attenuating Inflammatory Response in Microglia After Spared Nerve Injury” (Neurotherapeutics, 2022).

Tests used:
BRD4 = assay: Western blot of lumbar spinal cord, BRD4; type: in vivo, mice; settings: SNI ipsilateral side, day 7 and 14 post-surgery, i.n.
Protocol: The lumbar spinal cord was removed 7 and 14 days after surgery and 90 min after the intranasal administration of SUM52, corresponding to the peack of the effect. Samples (n = 4 for groups) were homogenized in a homogenization buffer and processed as previously described. Protein samples (40 µg of protein/sample) were separated on 10% SDS-PAGE and transferred onto nitrocellulose membranes (120 min at 100 V) using standard procedures. Membranes were blocked in PBST (PBS containing 0.1% Tween) containing 5% nonfat dry milk for 120 min. […] Blots were then extensively washed and developed using enhanced chemiluminescence detection system (Pierce, Milan, Italy) and signal intensity (pixels/mm^2) quantified (ImageJ, NIH). […] For each sample, the signal intensity was normalized to that of total protein stained by Ponceau S and the acquired images were quantified using Image Lab software. […]

SNI mice = assay: Observation of sedation or motor dysfunction; type: in vivo; settings: single administration 50 µM i.n.
IBA1 (microglia marker) = assay: Immunofluorescence of lumbar spinal cord, IBA1; type: in vivo; settings: lumbar spinal cord of SNI mice, day 14
Protocol: On postsurgical day 14, animals were perfused transcardially with 4% paraformaldehyde in 0.1 M phosphate buffer (PBS, pH 7.4). After perfusion, lumbar spinal cord was quickly removed and processed as previously described. Four animals per groups were used for this analysis. […] Primary antibody used was IBA1 (1:100; Santa Cruz Biotechnology Cat# sc-32725, RRID:AB_667733). After rinsing in PBS containing 0.01% Triton-X-100, sections were incubated in secondary antibodies labeled with Invitrogen Alexa Fluor 488 (490–525, 1:400; Thermo Fisher Scientific), Invitrogen Alexa Fluor 568 (578–603, 1:400; Thermo Fisher Scientific), Cruz Fluor 594 (592–614, 1:400; Santa Cruz Biotechnology) at room temperature for 2 h. Sections were coverslipped using Vectorshield mounting medium (Vector Laboratories, Burlingame, CA). A Leica DM6000B fluorescence microscope equipped with a DFC350FX digital camera with appropriate excitation and emission filters for each fluorophore was used to acquire representative images. Images were acquired with × 5 to × 40 objectives using a digital camera. The immunofluorescence intensity was calculated by ImageJ (Wayne Rasband, National Institute of Health, USA).

naïve mice = assay: Hot plate test, acute thermal pain in naïve mice; type: in vivo
Text: Mice were randomly assigned to each treatment group. To evaluate the pharmacological profile of SUM35 (N-hydroxy-6-(1-methyl-6-phenyl-4H-benzo[f][1,2,4]triazolo[4,3-a][1,4]diazepin-8-yl)hex-5-ynamide), SUM52 ((S)-N-hydroxy-7-(2-(1-methyl-6-phenyl-4H-benzo[f][1,2,4]triazolo[4,3-a][1,4]diazepin-4-yl)acetamido)heptanamide) (Fig. 1F), synthesized in the laboratory of Prof. Maria Novella Romanelli, iBET762 (molibresib; (4S)-6-(4-Chlorophenyl)-N-ethyl-8-methoxy-1-methyl-4H-[1,2,4]triazolo[4,3,a][1,4] benzodiazepine-4-acetamide, and SAHA (vorinostat; suberoylanilide hydroxamic acid) (Sigma-Aldrich, Italy) were administered 15 min before the tests. Drugs were dissolved in 5% DMSO. Drug concentrations were prepared in such a way that the necessary dose could be administered in a volume of 10 µl per mouse by intranasal (i.n.) administration. The experimental protocol to test the effect of treatments on behavioral and in vitro tests included 3 control groups: untreated, vehicle (5% DMSO), and saline. A representative figure of the experimental protocol in naïve (C) and SNI (F) mice has been inserted in Supplementary Fig. 1.
For i.n. administration, mice were slightly anesthetized by 2% isoflurane inhalation and placed in a supine position. A 5 μl aliquot of solution (treatments or vehicle) was slowly dropped alternatively to each nostril with a micropipette tip.
Animals were habituated to the testing environment daily for at least 2 days before baseline testing. To evaluate onset and progression of pain hypersensitivity, neuropathic mice were monitored by measuring nociceptive responses every 30 min for 3 h before surgery or 3, 7, 10, and 14 days after nerve surgery. Experiments were performed on post-surgery day 7 and 14 when the pain hypersensitivity was well established. Each mouse served as its own control, the responses being measured both before and after surgery. All testing was performed with a blind procedure.

Cc1nnc2n1-c1ccccc1C(c1ccccc1)=N[C@H]2CC(=O)NCCCCCCC(=O)NO [SUM52, (S)-N-hydroxy-7-(2-(1-methyl-6-phenyl-4H-benzo[f][1,2,4]triazolo[4,3-a][1,4]diazepin-4-yl)acetamido)heptanamide]
spinal BRD4 protein expression (BRD4): restored both epigenetic enzyme levels to control values | apparent sedation or motor dysfunction (SNI mice): No animal showed apparent sedation or motor dysfunction | IBA1 immunostaining (IBA1 (microglia marker)): significantly reduced | thermal antinociceptive effect (hot plate) (naïve mice; 5 µM i.n., 90 min after administration): ineffective | thermal antinociceptive effect (hot plate) (naïve mice; 50 µM i.n., 90 min after administration): trend toward an increase in the pain threshold | time at which the antinociceptive effect disappeared (hot plate) (naïve mice; 100 µM i.n.): 120 min | time of peak of antinociceptive activity (hot plate) (naïve mice; 100 µM i.n.): 90 min | thermal antinociceptive effect (hot plate) (naïve mice; 100 µM i.n., normalized to control, compared to SUM35 100 µM): significant analgesic effect | thermal antinociceptive effect (hot plate), whole dose range (naïve mice; 5 to 500 µM i.n.): showed thermal antinociceptive effects | thermal antinociceptive effect (hot plate) (naïve mice; doses higher than 100 µM (up to 500 µM) i.n.): progressive reduction of efficacy
